According to patent US20060247244A1, “Quinoxalinones and their use especially in the treatment of cardiovascular diseases” (BAYER HEALTHCARE AG, priority 2002, published 2006):

Target: T1, human M2 acetylcholine receptor (M2AChR) (Homo sapiens, UniProt P08172)
T1 construct: expressed in transfected cells; host or cells: CHO K1 (Chinese hamster ovary) cells constitutively expressing mitochondrially targeted aequorin and stably transfected with Galpha16
T1 sequence (P08172 1-466): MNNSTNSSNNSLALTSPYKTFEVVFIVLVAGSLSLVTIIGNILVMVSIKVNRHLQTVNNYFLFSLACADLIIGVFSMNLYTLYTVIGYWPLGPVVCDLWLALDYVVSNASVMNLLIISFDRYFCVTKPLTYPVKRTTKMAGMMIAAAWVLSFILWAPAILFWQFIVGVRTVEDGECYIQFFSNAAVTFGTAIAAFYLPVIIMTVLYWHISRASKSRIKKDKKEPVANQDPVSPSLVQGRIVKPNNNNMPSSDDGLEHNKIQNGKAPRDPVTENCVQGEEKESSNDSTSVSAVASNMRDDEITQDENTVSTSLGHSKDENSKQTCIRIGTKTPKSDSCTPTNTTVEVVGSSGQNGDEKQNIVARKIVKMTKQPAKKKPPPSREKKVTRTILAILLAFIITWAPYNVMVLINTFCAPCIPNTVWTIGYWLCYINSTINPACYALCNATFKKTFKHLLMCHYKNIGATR
Assay: Cellular functional in vitro test (aequorin luminescence in recombinant CHO K1 cells)
Assay type: cell-based
Conditions: agonist activity; CHO K1 cells expressing human M2AChR, aequorin and Gα16; luminescence readout
Description: A recombinant cell line was used to identify agonists of the human M2 acetylcholine receptor (M2A ChR) and to quantify the activity of the substances described herein. The cell is originally derived from a hamster ovary epithelial cell (Chinese Hamster Ovary, CHO K1, ATCC: American Type Culture Collection, Manassas, Va. 20108, USA). The test cell line constitutively expresses a modified form of the calcium-sensitive photoprotein aequorin which after reconstitution with the cofactor coelenterazine emits light when the free calcium concentration in the inner mitochondrial compartment is increased (Rizzuto R. Simpson A W, Brini M, Pozzan T.; Nature 358 (1992) 325-327). The cell is additionally stably transfected with the human M2AChR (Peralta E G, Ashkenazi A, Winslow J W, Smith D H, Ramachandran J, Capon, D J, EMBO Journal 6 (1987) 3923-3929) and with the gene which codes for the promiscuous Gα16 protein (Amatruda T T, Steele D A, Slepak V Z, Simon M I, Proceedings in the National Academy of Science USA 88 (1991), 5587-5591). The resulting M2AChR test cell responds to stimulation of the recombinant M2ACh receptor with an intracellular release of calcium ions, which can be quantified through the resulting aequorin luminescence with a suitable luminometer (Milligan G, Marshall F, Rees S, Trends in Pharmacological Sciences 17 (1996) 235-237).
Test procedure: The cells are plated out on the day before the test in culture medium (DMEM, 10% FCS, 2 mM glutamine, 10 mM HEPES; Gibco Cat.#21331-020; now belongs to: Invitrogen GmbH, 76131 Karlsruhe) in 384 (or 1536) well microtiter plates and kept in a cell incubator (96% humidity, 5% v/v CO2, 37° C.). On the day of the test, the culture medium is replaced by a Tyrode solution (in mM: 140 NaCl, 5 KCl, 1 MgCl2, 2 CaCl2, 20 glucose, 20 HEPES) which additionally contains the cofactor coelenterazine (50 μM), and the microtiter plate is then incubated for a further 3-4 hours. Immediately after the test substances have been transferred into the wells of the microtiter plate, the resulting light signal is measured in the luminometer.

| Compound | EC50 [nM] |
| --- | --- |
| CC(NC(=O)c1ccc2c(c1)N(C(=O)CNC1CCC1)CC(=O)N2C1CC1)c1cccnc1 (stereo not shown) [Example 2, 4-(N-Cyclobutylglycyl)-1-cyclopropyl-2-oxo-N-[1-(3-pyridinyl)ethyl]-1,2,3,4-tetra-hydro-6-quinoxalinecarboxamide] | 1000 |
| CC(NC(=O)c1ccc2c(c1)N(C(=O)CNC1CCCCC1)CC(=O)N2C1CC1)c1cccnc1 (stereo not shown) [Example 5, 4-(N-Cyclohexylglycyl)-1-cyclopropyl-2-oxo-N-[1-(3-pyridinyl)ethyl]-1,2,3,4-tetrahydro-6-quinoxalinecarboxamide] | 37 |
| CC1CCCC(NCC(=O)N2CC(=O)N(C3CC3)c3ccc(C(=O)NC(C)c4cccnc4)cc32)C1 (stereo not shown) [Example 11, 1-Cyclopropyl-4-[N-(3-methylcyclohexyl)glycyl]-2-oxo-N-[1-(3-pyridinyl)ethyl]-1,2,3,4-tetrahydro-6-quinoxalinecarboxamide] | 320 |
| O=C(NCc1ccsc1)c1ccc2c(c1)N(C(=O)CNC1CCCCC1)CC(=O)N2C1CC1 [Example 12, 4-(N-Cyclohexylglycyl)-1-cyclopropyl-2-oxo-N-(3-thienylmethyl)-1,2,3,4-tetrahydro-6-quinoxalinecarboxamide] | 1800 |
| C[C@H](NC(=O)c1ccc2c(c1)N(C(=O)CN[C@H]1CC[C@H](O)CC1)CC(=O)N2C1CC1)c1ccncc1 [Example 22, 4-N-[(trans-4-Cyclohexanoyl)glycyl]-1-cyclopropyl-2-oxo-N-[1-S-(4-pyridinyl)-ethyl]-1,2,3,4-tetrahydro-6-quinoxalinecarboxamide] | 150 |
| C[C@H](NC(=O)c1ccc2c(c1)N(C(=O)CNCC(C)(C)C)CC(=O)N2C1CC1)c1ccncc1 [Example 23] | 18 |
| C[C@H](NC(=O)c1ccc2c(c1)N(C(=O)CN[C@@H](C)C(C)(C)C)CC(=O)N2C1CC1)c1ccncc1 [Example 24] | 32 |

Now those with a lower EC50, led by results:

| EC50 [nM] | Compound |
| --- | --- |
| 6 | 4-N-[(1-S-Methyl-(2-methylbutyl)glycyl]-1-cyclopropyl-2-oxo-N-[1-S-(4-pyridinyl)-ethyl]-1,2,3,4-tetrahydro-6-quinoxalinecarboxamide [Example 25] |
| 16 | 4-N-[(1-S-Methyl-(2-methylbutyl)glycyl]-1-cyclopropyl-2-oxo-N-[(3-pyridinyl-4-methoxy)ethyl]-1,2,3,4-tetrahydro-6-quinoxalinecarboxamide [Example 26] |
| 5 | CC(NC(=O)c1ccc2c(c1)N(C(=O)CNC1CCCCC1)CC(=O)N2C1CC1)c1ccncc1 (single isomer, unassigned; (+)) [Example 7, (+)-4-(N-Cyclohexylglycyl)-1-cyclopropyl-2-oxo-N-[1-(4-pyridinyl)ethyl]-1,2,3,4-tetrahydro-6-quinoxalinecarboxamide] |
